The source of these data is patent US20220211658A1, “METHODS FOR TREATING DISORDERS ASSOCIATED WITH SLEEP SPINDLE DEFICITS” (The Broad Institute, Inc., priority 2019, published 2022).

Test [1] concerns TRN neurons in RH mice. In words: Rebound burst firing in TRN neurons, slices from CACNA1I R1305H (RH) mice. The format is cell-based. To be noted: LY379268 1 μM bath application, mean±s.e.m., n=9, baseline 1.44±0.444, p=0.0039. The text has this:
(§1) TRN neurons are known to display dual firing modes depending on their resting membrane potential: tonic and burst firing. While tonic firing refers to regular sodium spike trains at depolarized membrane potential, burst firing is characterized by repetitive “low-threshold” T type Ca^2+ transients (mediated by Cav3.3 channel) crowned by high-frequency sodium spikes when hyperpolarized. This burst firing mode may be critical for the generation and/or the maintenance of certain sleep rhythms in mice, including generation and maintenance of sleep spindle oscillations (Astori et al., 2011; Lee et al., 2014; Steriade et al., 1993; von Krosigk et al., 1993; Sherman et al., 2002).
Mice carrying a mutation in CACNA1I (R1305H; RH mice) show a significant deficit in rebound bursting of TRN neurons. The amino acid sequence of mouse CACNA1I protein is provided in SEQ ID NO: 2. Whether the group II metabotropic glutamate receptor agonist LY379268 could rescue such deficits in rebound bursting in RH mice was tested. Similar to in WT mice, LY379268 (1 μM) was also able to increase rebound bursting in RH mice (FIG. 2A-2B). The rebound bursting in baseline/control conditions was 1.44±0.444 (mean±s.e.m.), while after the bath application of LY379268 (1 μM) it was 3.78±1.08 (n=9 Wilcoxon signed rank test: p=0.0039**). […]

Test [2] relates to TRN neurons in WT mice. In words: Rebound burst firing in TRN neurons, acute brain slices from WT mice. The format is cell-based. The conditions noted are these: mean±s.e.m.
Description: as §1
Whether this characteristic TRN burst firing activity is affected by activation of the group II metabotropic glutamate receptors, including mGlu2 and mGlu3, was examined using the group II metabotropic glutamate receptor agonist, LY379268. As shown in FIG. 1A-1B, a significant increase in the repetitive rebound bursting after the addition of LY379268 compared to baseline levels in acute brain slices acquired from wild-type (WT) mice was observed. The rebound bursting in the baseline condition (control) was 1.87±0.291 (mean±s.e.m.), while after the bath application of LY379268 (1 μM) it was 2.87±0.435 (n=15 Wilcoxon signed rank test: p=0.002**). Such increase was not observed in WT slices treated with artificial cerebrospinal fluid (ACSF; n=14; baseline: 1.79±0.291; ACSF treated: 2.21±0.299; Wilcoxon signed rank test: p=0.1562). In addition, there was also a reduction in burst threshold (defined as the lowest membrane holding potential from which hyperpolarization induced rebound bursting can be observed) in WT mice after bath application of LY379268 (1 μM; FIG. 1C). The threshold for rebound bursting in the baseline condition (control) was −76.98 mV±1.79 (mean±s.e.m.), while after the bath application of LY379268 (1 μM) it was −78.48 mV±1.80 (n=10 Wilcoxon signed rank test: p=0.048*). Such changes in threshold were also not observed following ACSF treatment (n=10; baseline: −76.06 mV±1.71; ACSF treated: −76.32 mV±1.82; Wilcoxon signed rank test: p=0.3750).
Since early clinical trials used a prodrug form of another selective group II metabotropic glutamate receptor agonist, specifically […] (a methionine amide of LY-404039, also called pornagiumetad methionil or LY-2140023 monohydrate), the effect of LY-404039 on TRN neuron rebound bursting activity in WT mice was measured. […] The rebound bursting in control conditions was 2.71±0.42 (mean±s.e.m.), while after the bath application of LY404039 (1 μM) it was 4.57±0.64 (n=7 Wilcoxon signed rank test: p=0.0156).
Whether specific allosteric activation of the mGlu3 receptor can also enhance rebound bursting activity in TRN neurons was examined. […]

The subject of test [3] is WT and CaV3.3 RH mice. Description: EEG recording of NREM sleep, delta power and sleep spindles after LY379268, analyzed by Luna. Type of test: in vivo. To be noted: 10 mg/kg i.p. Here is the method:
(§2) There is a strong correlation between rebound bursting in TRN neurons and the rate of occurrence of sleep spindle oscillations during NREM or deep sleep state in mice (Wells et al., Ghoshal et al.) Since LY379268 increased rebound burst firing of TRN neurons in WT mice and rescued rebound bursting deficits in RH mice, it was examined whether activation of mGlu3 could rescue the sleep spindle deficits observed in the RH mice. LY379268 was administered intraperitoneally (i.p.; 10 mg/kg) while simultaneously recording the brain activity using electroencephalography (EEG) in WT and CaV3.3 RH mice. EEG was recorded using surface electrodes chronically implanted near the frontal and parietal lobes of the mice (Pinnacle Systems). Mice were habituated in the EEG recording arena for 48 hrs and then injected with vehicle (0.9% saline) and recorded for another 24 hours. Then, 10 mg/kg LY379268 formulated in 0.9% saline was injected, and their EEG activity was recorded for another 24 hours, and analyzed by Luna (zzz.bwh.harvard.edu, Ghoshal et al., 2020).

Test [4] concerns WT mice. Description: EEG recording of NREM sleep and sleep spindle density after Mavalon-63, decision tree algorithm. To be noted: 10 mg/kg. The format is in vivo. Here is the method: as §2
Whether allosteric activation of mGlu3 receptor using the Mavalon-63 PAM would also lead to an increase in sleep spindle density was examined. The experimental design is shown in FIG. 6A, and mice were similarly recorded as in Example 4. […]

Setting [5] is: both WT and RH mice, 12 hr light cycle.

For `N[C@@]1(C(=O)O)CO[C@H]2[C@H](C(=O)O)[C@H]21` (stereo in doubt) [LY379268, (1R,4R,5S, 6R)-4-Amino-2-oxabicyclo[3.1.0]hexane-4,6-dicarboxylic acid], the “rebound bursting (number of rebound bursts) after bath application” value in test [1] is listed as 3.78±1.08. The “threshold for rebound bursting after bath application” value in test [2] (WT mice, LY379268 1 μM bath application, n=10, baseline −76.98 mV±1.79, p=0.048) is on record as −78.48 mV. The “rebound bursting (number of rebound bursts) after bath application” value in test [2] (WT mice, LY379268 1 μM bath application, n=15, baseline 1.87±0.291, p=0.002) worked out at 2.87±0.435. Also, in test [3] (RH mice, to wildtype levels, WT-baseline vs RH-LY379268 p>0.05), the “NREM specific sleep spindle deficits in RH mice” value is reported as “rescued”. In addition, the “sleep spindle density, entire NREM period” value in test [3] (both WT and RH mice, 12-hr light cycle, especially parietal cortex, Fc=13 Hz and 15 Hz) was “modest but significant increase”. In test [3] (setting [5]), the relative delta power result is “concurrent increase” and the “time spent in NREM sleep” value is “increased”. In test [3] (compared with the entire 12-hr light cycle, Fc=13 Hz and 15 Hz), the “increase in sleep spindles, latter half (last 6 hours) of the light cycle” value was “more robust”.
Take `N[C@@]1(C(=O)O)CS(=O)(=O)[C@H]2[C@H](C(=O)O)[C@H]21` [LY404039, (1R,4S,5S,6S)-4-Amino-2-thiabicyclo [3.1.0]hexane-4,6-dicaiboxylic acid 2,2-dioxide]: the “rebound bursting (number of rebound bursts) after bath application” value in test [2] (WT mice, LY404039 1 μM bath application, n=7, control 2.71±0.42, p=0.0156) stood at 4.57±0.64.
For the compound `CN1C(=O)c2cccn2-c2cc(-c3ccc(F)cn3)ccc2C12CC2` [Mavalon 63, 5-Methyl-9-(5-fluoropyridin-2-yl)-spiro[benzo [f]pyrrolo[1.2-a][1,4]diazepine-6,1′-cyclopropan]-4(5H)-one], the “rebound bursting (number of rebound bursts) after bath application” value in test [2] (WT TRN neurons, Mavalon 63 500 nM bath application, n=12, baseline 3.2±0.77, p=0.0020) is recorded as 4.9±0.91. Moreover, in test [4] (12-hr light cycle), the “time spent in NREM” value is given as “did not increase”. Also, in test [4] (averaged across all center frequencies 9-15 Hz, 12 hour light cycle), the “parietal sleep spindle density during NREM” value was “appreciable and significant (p<0.05; paired t-test) increase”.
